Test results as given in ChEMBL document CHEMBL1138586 (Bioorg Med Chem Lett, 2009).

Columns and labels:
Coagulation factor X = Coagulation factor X (Homo sapiens, UniProt P00742); assay: Inhibition of Factor 10a
[1] = Clearance in rat; assay type: ADME, organism-based; conditions: in vivo
[2] = Half life in rat; assay type: ADME, organism-based; conditions: in vivo
[3] = Oral bioavailability in rat; assay type: ADME, organism-based; conditions: in vivo
[4] = Metabolic stability in human liver S9 fraction at 1 uM by HPLC; assay type: ADME, subcellular
[5] = Metabolic stability in rat liver S9 fraction at 1 uM by HPLC; assay type: ADME, subcellular

Coagulation factor X, sequence (P00742 41-179 limits assumed): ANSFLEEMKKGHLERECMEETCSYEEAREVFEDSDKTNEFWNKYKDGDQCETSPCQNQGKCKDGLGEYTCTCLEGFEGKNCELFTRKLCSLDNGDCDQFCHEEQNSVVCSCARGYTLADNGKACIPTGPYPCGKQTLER
Coagulation factor X, sequence (P00742 235-488 limits assumed): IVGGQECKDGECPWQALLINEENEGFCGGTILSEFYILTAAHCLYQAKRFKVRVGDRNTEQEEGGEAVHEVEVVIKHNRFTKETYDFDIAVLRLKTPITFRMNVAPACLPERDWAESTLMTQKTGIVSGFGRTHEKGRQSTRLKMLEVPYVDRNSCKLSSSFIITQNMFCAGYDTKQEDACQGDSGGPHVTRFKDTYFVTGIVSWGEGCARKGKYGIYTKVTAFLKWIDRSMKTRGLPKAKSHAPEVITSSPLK

Row | Compound | IC50 (Coagulation factor X) [nM] | also measured
1 | CN(C)C(=N)c1ccc(C(=O)Nc2ccc(Cl)cc2C(=O)Nc2ccc(F)cn2)cc1 | 3 | 
2 | CN(C)CCOc1cc(C(=N)N(C)C)ccc1C(=O)Nc1ccc(Cl)cc1C(=O)Nc1ccc(Cl)cn1 | < 0.5 | 
3 | CN(C)C(=N)c1ccc(C(=O)Nc2c(C(=O)Nc3ccc(Cl)cn3)cc(Cl)cc2N2CCCCC2)cc1 | 0.9 | 
4 | CN(C)C(=N)c1ccc(C(=O)Nc2ccc(Cl)cc2C(=O)Nc2ccc(Cl)cn2)c(N(C)C)c1 | 3 | 
5 | CN(C)C(=N)c1ccc(C(=O)Nc2cc(Cl)ccc2C(=O)Nc2ccc(Cl)cn2)cc1 | 2 | 
6 | N=C(c1ccc(C(=O)Nc2ccc(Cl)cc2C(=O)Nc2ccc(Cl)cn2)cc1)N1CCCC1 | 2 | 
7 | CN(C)C(=N)c1ccc(C(=O)Nc2ccc(Cl)cc2C(=O)Nc2ccc(Cl)cn2)c(N2CCC2)c1 | 0.4 | 
8 | N=C(c1ccc(C(=O)Nc2ccc(Cl)cc2C(=O)Nc2ccc(Cl)cn2)cc1)N1CCCCC1 | 1.3 | 
9 | CN1CCN=C1c1ccc(C(=O)Nc2ccc(Cl)cc2C(=O)Nc2ccc(Cl)cn2)cc1 | 1.5 | 
10 | CN(C)C(=N)c1ccc(C(=O)Nc2ccc(OC(F)(F)F)cc2C(=O)Nc2ccc(Cl)cn2)cc1 | 17 | 
11 | CN(C)C(=N)c1csc(C(=O)Nc2ccc(Cl)cc2C(=O)Nc2ccc(Cl)cn2)c1 | 1 | 
12 | CCN1CCN=C1c1ccc(C(=O)Nc2ccc(Cl)cc2C(=O)Nc2ccc(Cl)cn2)cc1 | 6 | 
13 | Cc1ccc(NC(=O)c2ccc(C(=N)N(C)C)cc2)c(C(=O)Nc2ccc(Cl)cn2)c1 | 0.7 | 
14 | CN(C)C(=N)c1ccc(C(=O)Nc2ccc(OCC(F)(F)F)cc2C(=O)Nc2ccc(Cl)cn2)cc1 | 10 | 
15 | CC(C)Oc1cc(Cl)cc(C(=O)Nc2ccc(Cl)cn2)c1NC(=O)c1ccc(C(=N)N(C)C)cc1 | 0.5 | 
16 | CCc1ccc(NC(=O)c2ccc(C(=N)N(C)C)cc2)c(C(=O)Nc2ccc(Cl)cn2)c1 | 1 | 
17 | C#Cc1ccc(NC(=O)c2ccc(C(=N)N(C)C)cc2)c(C(=O)Nc2ccc(Cl)cn2)c1 | < 0.5 | clearance [1]: 74.8 mL/min/kg; half-life [2]: 8.4 h; bioavailability [3]: 27.9%
18 | CN(C)C(=N)c1ccc(C(=O)Nc2ccc(F)cc2C(=O)Nc2ccc(Cl)cn2)cc1 | 1.4 | 
19 | C#Cc1ccc(NC(=O)c2cc(Cl)ccc2NC(=O)c2ccc(C(=N)N(C)C)cc2)nc1 | 0.8 | half-life at 1 µM [4]: > 2 h; half-life at 1 µM [5]: > 2 h; clearance [1]: > 100 mL/min/kg; half-life [2]: 6.3 h
20 | CN(C)C(=N)c1ccc(C(=O)Nc2c(C(=O)Nc3ccc(Cl)cn3)cc(Cl)cc2N(C)C)cc1 | 0.5 | 
21 | N=C(c1ccc(C(=O)Nc2ccc(Cl)cc2C(=O)Nc2ccc(Cl)cn2)cc1)N1CCOCC1 | 2 | 
22 | CN(C)C(=N)c1ccc(C(=O)Nc2ccc(Cl)cc2C(=O)Nc2ccc(Cl)cn2)cn1 | 3 | 
23 | CN(C)C(=N)c1ccc(C(=O)Nc2c(C(=O)Nc3ccc(Cl)cn3)cc(Cl)cc2N2CCOCC2)cc1 | 1.3 | 
24 | CN(C)C(=N)c1ccc(C(=O)Nc2ccc(C(F)(F)F)cc2C(=O)Nc2ccc(Cl)cn2)cc1 | 1.3 | 
25 | COCCN(C)c1cc(C(=N)N(C)C)ccc1C(=O)Nc1ccc(Cl)cc1C(=O)Nc1ccc(Cl)cn1 | 0.5 | 
26 | COc1cc(Cl)cc(C(=O)Nc2ccc(Cl)cn2)c1NC(=O)c1ccc(C(=N)N(C)C)cc1 | 0.6 | bioavailability [3]: 11.2%
27 | CCN(C)C(=N)c1ccc(C(=O)Nc2ccc(Cl)cc2C(=O)Nc2ccc(Cl)cn2)cc1 | 0.9 | 
28 | CN(C)C(=N)c1ccc(C(=O)Nc2ccc(C#N)cc2C(=O)Nc2ccc(Cl)cn2)cc1 | 1.2 | 
29 | N=C(c1ccc(C(=O)Nc2ccc(Cl)cc2C(=O)Nc2ccc(Cl)cn2)cc1)N1CCC1 | 1.2 | 
